Data set [1] is described as follows: Half life in rat at 1 mg/kg, iv. In kind it is ADME, organism-based. Further details: dose 1 mg/kg, route intravenous. The note with it: in vivo.
A short description of data set [2]: Oral bioavailability in rat at 3 mg/kg, po. In kind it is ADME, organism-based. To be noted: in vivo.
Data set [3] can be described thus: AUC in dog at 1 mg/kg, iv. In kind it is ADME, organism-based, Canis lupus familiaris. Further details: dose 1 mg/kg, route intravenous. To be noted: plasma.
The nature of data set [4]: AUC in rat at 1 mg/kg, iv. Set-up: dose 1 mg/kg, route intravenous. In kind it is ADME, organism-based. To be noted: plasma.
A short description of data set [5]: Clearance in rat at 1 mg/kg, iv. The note with it: in vivo. Further details: dose 1 mg/kg, route intravenous. In kind it is ADME, organism-based.
A short description of data set [6]: Oral bioavailability in dog at 3 mg/kg, po. The note with it: in vivo. In kind it is ADME, organism-based, Canis lupus familiaris.
Data set [7] can be described thus: Volume of distribution at steady state in rat at 1 mg/kg, iv. The note with it: in vivo, read-out: Vdss. Further details: dose 1 mg/kg, route intravenous. In kind it is ADME, organism-based.
Data set [8] is described as follows: Volume of distribution at steady state in dog at 1 mg/kg, iv. Further details: dose 1 mg/kg, route intravenous. In kind it is ADME, organism-based, Canis lupus familiaris. The note with it: in vivo, read-out: Vdss.
A short description of data set [9]: AUC in dog at 3 mg/kg, po. Set-up: dose 3 mg/kg, route oral. In kind it is ADME, organism-based, Canis lupus familiaris. The note with it: plasma.
Data set [10] is described as follows: Half life in dog at 1 mg/kg, iv. In kind it is ADME, organism-based, Canis lupus familiaris. Set-up: dose 1 mg/kg, route intravenous. To be noted: in vivo.
Data set [11] is described as follows: Clearance in dog at 1 mg/kg, iv. In kind it is ADME, organism-based, Canis lupus familiaris. Set-up: dose 1 mg/kg, route intravenous. The note with it: in vivo.
The nature of data set [12]: AUC in rat at 3 mg/kg, po. In kind it is ADME, organism-based. Further details: dose 3 mg/kg, route oral. The note with it: plasma.

Molecules are shown by their SMILES.

Consider `Cc1oc(-c2ccccc2)nc1CCCc1ccc(C[C@@H](C(=O)O)n2nccn2)cc1`, for which the figures for the half-life in [1] and in data set [10] were 7.5 h and 5.8 h, respectively. Besides, the bioavailability – broadly, dose-corrected exposure relative to a reference, in per cent – was 42% in data set [2] and over 95% in data set [6]. The AUC (as a rule, the area under the concentration-time curve, a measure of exposure) in data set [3] was 3970 ng·h/mL; in data set [4], 928 ng·h/mL; in data set [9], 13000 ng·h/mL; in data set [12], 1170 ng·h/mL. Also, the clearance (as a rule, the volume of plasma or blood freed of the substance per unit of time) in data set [5] came to 18 mL/min/kg; in data set [11], 4.4 mL/min/kg. Further, the Vd came to 2.9 L/kg in data set [7] and 0.82 L/kg in [8].
